The record followed here is PubChem BioAssay (NCI).

What all share (experiment): DTP human tumour cell line panel, 48 h
Assay [1] has as its system SNB-19 CNS.
Assay [2] relates to HT29 colon.
The test system of assay [3] is HOP-92 NSCLC.
Assay [4] has as its system SK-MEL-5 melanoma.
The test system of assay [5] is UACC-257 melanoma.
In assay [6] the test system is CCRF-CEM leukemia.
Assay [7] has as its system M14 melanoma.
The test system of assay [8] is UACC-62 melanoma.
For assay [9], the system named is TK-10 renal.
Assay [10] relates to SK-MEL-2 melanoma.
For assay [11], the system named is K-562 leukemia.
Assay [12] concerns NCI-H226 lung.

The structures appear in SMILES notation.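 Grown in 96-well plates, cells were treated for 48 hours with each compound at five concentrations. Insufficient inhibition: endpoint recorded as highest concentration tested. GI50 is the concentration that inhibits growth by half. TGI marks complete inhibition of growth.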 Where a SMILES comes first, the peptide text is derived from it. The star is where a group is joined. Cbz = O=C(OCc1ccccc1)*; Bn = c1ccc(C*)cc1 Some results are limits rather than exact numbers.

The term TGI denotes the concentration giving total growth inhibition. `COC(=O)C(Cc1ccc(O)cc1)NC(=O)C(COCc1ccccc1)NC(=O)OCc1ccccc1` (stereo not drawn) (Cbz-Ser(Bn)-Tyr-OMe; configuration not given here): the TGI in assay [1] was 31.2 µM; in assay [2] it was 28.6 µM; in [3], 60.8 µM; in assay [4], 31.4 µM; in [5] it was 39.5 µM; in assay [6], greater than 100 µM. The TGI in assay [7] was 33.5 µM; in [8], 31.1 µM; in assay [9], 35.2 µM; in assay [10] it was 40.8 µM; in assay [11], greater than 100 µM; in assay [12], 36.9 µM.
Regarding `C1CSCCSCSCCS1`, the TGI in assay [1], in assay [2], in assay [3], in assay [4], in assay [5] and in [7] was greater than 100 µM in each case. For the same compound, the TGI in assay [8], in [9], in assay [10] and in [12] was greater than 100 µM in each case.
Regarding `CC1C[C@]2(C[C@@H](C)C(=O)O2)OC2CC3(C)C4CCC5C(C)(C)OC(=O)CC[C@@]56C[C@@]46CC[C@]3(C)C12` (stereo partly drawn), the TGI in assay [1], in assay [2], in [3], in assay [4], in assay [5] and in [6] was greater than 100 µM throughout. Besides, the TGI in assay [7], in [9], in assay [10], in assay [11] and in assay [12] was greater than 100 µM each time.
With `NC(CCP(=O)(O)O)C(=O)O` (stereo not drawn), the TGI in assay [1], in assay [2], in assay [3], in [4], in assay [5] and in assay [6] was greater than 100 µM throughout. In addition, the TGI in assay [7], in assay [8], in [9], in assay [10], in assay [11] and in assay [12] was greater than 100 µM throughout.
On to `CS(=O)(=O)c1ccc2nc(-c3ccc(O)cc3)sc2c1`, for which the TGI was 36.2 µM in assay [1]; 26 µM in [2]; 31.8 µM in assay [4]; 38.9 µM in assay [5]; greater than 100 µM in [6]; 38.4 µM in assay [7]. The total growth inhibition concentration (TGI) is 34.4 µM in [8]; 29.8 µM in assay [9]; 36.3 µM in assay [10]; greater than 100 µM in [11]; 36.6 µM in assay [12].
`O=S(=O)(O)c1ccc2c(N=Nc3ccc(S(=O)(=O)O)c4ccccc34)c(O)c(S(=O)(=O)O)cc2c1`: the TGI in assay [1], in assay [2], in assay [3], in assay [4], in assay [5] and in assay [6] was greater than 100 µM in each case. For the same compound, the total growth inhibition concentration (TGI) in [7], in assay [8], in assay [9], in assay [10], in [11] and in assay [12] was greater than 100 µM each time.
For `O=C(Nc1ccc(Cl)cc1)c1cc([N+](=O)[O-])ccc1O`, the TGI in [1] was greater than 49.2 µM; in assay [2] it was 29.1 µM; in [4], 8.25 µM; in assay [5] it was 16.7 µM; in assay [6] it was 11 µM; in assay [7], 18.9 µM. The TGI is 8.17 µM in assay [8]; greater than 60.6 µM in assay [9]; 11.3 µM in assay [10]; 13.1 µM in assay [11]; 12.6 µM in assay [12].
Take `O=[N+]([O-])c1cc(N=Nc2c(O)ccc3cc(S(=O)(=O)O)ccc23)c(O)c([N+](=O)[O-])c1`: the TGI in [1], in assay [2], in assay [3], in assay [4], in assay [5] and in [6] was greater than 100 µM throughout. In addition, the TGI in [7], in assay [8], in assay [9], in [10], in assay [11] and in assay [12] was greater than 100 µM each time.
Turning to `CCCCSCC(NC(=O)/C=C/c1c(C)[nH]c(=O)[nH]c1=O)C(=O)OC` (stereo not drawn), the TGI stood at 204 µM in [1]; 357 µM in [2]; 189 µM in assay [3]; 176 µM in assay [4]; 235 µM in assay [5]; 245 µM in assay [6]. Also, the TGI in assay [8] is 198 µM; in assay [10] it was 121 µM; in assay [11], 367 µM; in assay [12], 291 µM.
What is called GI50 is the concentration that inhibits growth by half. Take `c1ccc(-c2n(Cc3ccc4ccccc4c3)c3ccccc3[n+]2Cc2ccc3ccccc3c2)cc1`: the GI50 in assay [3] was 0.117 µM; in [4], 0.175 µM; in assay [8], 0.224 µM; in [12], 0.352 µM. In addition, the TGI in [3] worked out at 0.508 µM; in assay [4], 0.326 µM; in [8], 0.76 µM; in assay [12], 2.01 µM.
Regarding `COc1ccc(-c2oc3cc(OC(C)=O)cc(OC(C)=O)c3c(=O)c2OC)cc1`, the TGI in assay [1] turned out to be 79.4 µM; in [2], 36.3 µM; in assay [4] it was 25 µM; in assay [5], 34.7 µM; in assay [6], 49.6 µM; in [7] it was 30.6 µM. Further, the TGI in [8] was found to be 22.7 µM; in assay [9], 70.8 µM; in [11], 29.4 µM.
